According to ChEMBL document CHEMBL1201862, “PubChem BioAssay data set” (2004):
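In this assay, cells in 96-well plates receive the compound at five concentrations for 48 hours. Endpoints are linearly interpolated between the surrounding concentrations. GI50 is the concentration that inhibits growth by half.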 The source made the active and inactive calls. Rule as the data show it: active = GI50 up to about 1.1 µM and inactive = higher.

Experiments:
Experiment in all cases: NCI-60 cell line screen, 48 h
[1] = test system: 786-0
[2] = test system: A498
[3] = test system: A549
[4] = test system: ACHN
[5] = test system: BT-549
[6] = test system: CAKI-1
[7] = test system: CCRF-CEM
[8] = test system: COLO 205
[9] = test system: DU-145
[10] = test system: EKVX
[11] = test system: HCT-116
[12] = test system: HCT-15
[13] = test system: HL-60
[14] = test system: HOP-62
[15] = test system: HT-29
[16] = test system: Hs-578T
[17] = test system: IGROV-1
[18] = test system: K562
[19] = test system: KM12
[20] = test system: M14
[21] = test system: MCF7
[22] = test system: MDA-MB-231
[23] = test system: MDA-MB-435
[24] = test system: MDA-N
[25] = test system: MOLT-4
[26] = test system: NCI-H226
[27] = test system: NCI-H23
[28] = test system: NCI-H460
[29] = test system: NCI/ADR-RES
[30] = test system: OVCAR-3
[31] = test system: OVCAR-5
[32] = test system: OVCAR-8
[33] = test system: PC-3
[34] = test system: RPMI-8226
[35] = test system: RXF 393
[36] = test system: SF-268
[37] = test system: SF-295
[38] = test system: SF-539
[39] = test system: SK-MEL-28
[40] = test system: SK-MEL-2
[41] = test system: SK-MEL-5
[42] = test system: SN12C
[43] = test system: SNB-19
[44] = test system: SNB-75
[45] = test system: SR
[46] = test system: SW-620
[47] = test system: T47D
[48] = test system: TK-10
[49] = test system: U-251
[50] = test system: UACC-257
[51] = test system: UACC-62
[52] = test system: UO-31
[53] = test system: HCC 2998
[54] = test system: HOP-92
[55] = test system: LOX IMVI
[56] = test system: Malme-3M
[57] = test system: NCI-H522
[58] = test system: OVCAR-4
[59] = test system: SK-OV-3

Measured: GI50

NNc1nncc2[nH]cnc12
inactive: [1] > 100 µM | [2] > 100 µM | [3] > 100 µM | [4] > 100 µM | [5] > 100 µM | [6] > 100 µM | [7] > 100 µM | [8] > 100 µM | [9] > 100 µM | [10] > 100 µM | [11] > 100 µM | [13] 35.8 µM | [14] > 100 µM | [15] > 100 µM | [16] > 100 µM | [17] > 100 µM | [18] > 100 µM | [19] > 100 µM | [20] > 100 µM | [21] > 100 µM | [22] > 100 µM | [23] > 100 µM | [24] > 100 µM | [25] > 100 µM | [26] > 100 µM | [27] > 100 µM | [28] > 100 µM | [29] > 100 µM | [30] > 100 µM | [31] > 100 µM | [32] > 100 µM | [33] > 100 µM | [34] > 100 µM | [35] > 100 µM | [36] > 100 µM | [37] > 100 µM | [38] > 100 µM | [39] > 100 µM | [40] > 100 µM | [41] > 100 µM | [42] > 100 µM | [43] > 100 µM | [44] > 100 µM | [45] > 100 µM | [46] > 100 µM | [47] > 100 µM | [48] > 100 µM | [49] > 100 µM | [50] > 100 µM | [51] > 100 µM | [52] > 100 µM
> 100 µM: [12]

O=C1CSC(/C=C/c2ccccc2)N1c1ccc(-n2c(-c3ccccc3)nc3ccccc3c2=O)cc1 (stereo unspecified)
86.9 µM: [12]
inactive: [1] > 100 µM | [2] > 100 µM | [3] > 100 µM | [4] > 10 µM | [5] > 100 µM | [6] > 100 µM | [7] 66.1 µM | [8] > 100 µM | [9] > 100 µM | [10] > 100 µM | [53] 99.5 µM | [11] > 100 µM | [13] > 100 µM | [14] 42.7 µM | [54] > 100 µM | [15] > 100 µM | [16] > 100 µM | [17] 74.3 µM | [18] > 100 µM | [19] 33.1 µM | [55] 95.3 µM | [20] > 100 µM | [21] 52.2 µM | [22] > 100 µM | [23] > 100 µM | [24] > 100 µM | [25] 30.9 µM | [56] > 100 µM | [26] 48.8 µM | [27] > 100 µM | [28] 87.3 µM | [57] 50.6 µM | [29] 59.2 µM | [30] > 100 µM | [58] 19.4 µM | [31] > 100 µM | [32] > 100 µM | [33] 61.2 µM | [34] > 100 µM | [36] 95.5 µM | [37] > 100 µM | [38] 71.4 µM | [39] > 100 µM | [40] > 100 µM | [41] 68.9 µM | [59] 19.3 µM | [42] > 100 µM | [43] > 100 µM | [44] 22.6 µM | [45] 37.1 µM | [46] > 10 µM | [47] 17 µM | [48] > 100 µM | [49] > 100 µM | [50] > 100 µM | [51] 45.1 µM | [52] 16.8 µM

OC1CC2CCCN(CCc3c1[nH]c1ccccc31)C2 (stereo unspecified)
> 100 µM: [12]
inactive: [1] > 100 µM | [2] > 100 µM | [3] > 100 µM | [4] > 100 µM | [5] 38.3 µM | [6] > 100 µM | [7] > 100 µM | [8] > 100 µM | [9] > 100 µM | [53] > 100 µM | [11] > 100 µM | [13] > 100 µM | [54] > 100 µM | [15] > 100 µM | [16] > 100 µM | [18] > 100 µM | [19] > 100 µM | [55] > 100 µM | [21] > 100 µM | [22] 89.3 µM | [23] > 100 µM | [24] > 100 µM | [56] > 100 µM | [26] > 100 µM | [27] > 100 µM | [28] > 100 µM | [57] > 100 µM | [29] > 100 µM | [58] > 100 µM | [32] > 100 µM | [33] > 100 µM | [34] > 100 µM | [36] > 100 µM | [37] > 100 µM | [38] > 100 µM | [39] > 100 µM | [40] > 100 µM | [41] 47.3 µM | [59] > 100 µM | [42] > 100 µM | [43] > 100 µM | [44] > 100 µM | [45] 97.1 µM | [46] > 100 µM | [47] > 100 µM | [48] > 100 µM | [49] > 100 µM | [50] 67.6 µM | [51] 86.7 µM | [52] > 100 µM
